Assay results taken from US7098245B2, “Polynucleotide cleavage agent switched on by photo irradiation” (Tottori University, priority 2002, dated 2006).

Tests used:
DNA = details: background, symposium report 2001; cited from earlier work
supercoiled φX174 DNA = experiment: DNA cleavage test using (R,R)- and (S,S)-11 (Xe lamp, 45 min); assay type: biochemical
Experimental: The reaction was carried out in a solvent of 20 mM sodium phosphate of pH 7.0 and 20% DMSO. Samples were irradiated for 45 min at a distance of 6 cm using Xe lamp using polystylene filter. Electrophoresis (0.8% agarose gel, TAE buffer, 100 V, 40 min). Gel was stained by EtBr and visualized by UV-B lamp (transillumnator).

[1] = Stability of the compound (sunlight in solution; after deprotection); assay type: physicochemical
Experimental: Part G. A solution of ester 5 (14.6 mg, 0.0307 mmol) in methanol (0.3 mL) was stirred at rt in the presence of Pd/C (3.0 mg, 20 wt %) under H2 (1 atm) for 15 h in the dark. The crude products were filtered through a sintered glass filter with a Celite pad, and the filtrate was dried under vacuo to afford the title compound (S,S)—NH2-mono(9.2 mg, 0.027 mmol) in 88% yield. This compound was unstable when dissolved in methanol or CHCl3 under the irradiation of sunlight; therefore, it should be kept under an argon atmosphere in a dark place.
The reaction was carried out in a flask that was covered by aluminum foil to keep out light. A solution of (R,R)-10 (18 mg, 0.038 mmol) in methanol (1.0 mL) was stirred at rt in the presence of Pd/C (5.4 mg, 30 wt %) under H2 (1 atom) for 5 days and filtered though a glass sintered glass filter with a Celite pad. The filtrate was evaporated under reduced pressure to give (R,R)—NH2-mono (9.9 mg, […]). This compound was unstable when dissolved in methanol or CHCl3 under the irradiation of sunlight; therefore, it should be kept under an argon atmosphere in a dark place.

supercoiled φX-174 DNA = experiment: DNA cleavage test under photo-irradiation (Xe lamp with polystylene filter, 2 hrs); assay type: biochemical
Experimental: (§1) DNA cleavage test using (S,S)—NH2-mono under photo-irradiation φX174 RFI DNA (New England BioLabs, N3021S, 150 ┌M) (1 ┌L) was dissolved in a 10 mM sodium phosphate buffer pH 7.0 (9 ┌L) in a micro tube.
(§2) Ethyl 9-anthracene carboxylate (anth-OEt) was used as a control compound. Three samples were prepared: a buffer solution of DNA, a mixture of anth-OEt with a buffer solution of DNA, and a mixture of (S,S)—NH2-mono with a buffer solution of DNA. These samples were placed under a UV-A lamp (max=365 nm, trans illuminator) at a distance of 4 cm, and irradiated for 3 h. The resulting mixture was subjected to an electrophoresis experiment ([…], TAE buffer, 100 V, 30 min). The resulting agarose gel was stained with ethidium bromide (EtBr), visualized by UV-B lamp and the DNA cleavage ratio was determined by NIH Image 1.62.
The test was carried out using (R,R)— and (S,S)—NH2-mono in the same manner as described in Example 2 except that the test samples were placed under a Xe lamp with a polystylene filter at a distance of 3 cm and irradiated for 2 hrs.

φX174 RFI DNA = experiment: DNA cleavage test under photo-irradiation (UV-A lamp 365 nm, 3 h), agarose gel electrophoresis; assay type: biochemical; details: 4 cm, 10 mM sodium phosphate pH 7.0, samples 1, 5, 12 mM, 1 ┌L
Experimental: as §1, §2
The increased ratio of nicked DNA means that DNA was cleaved by the experimental conditions.

[2] = Xe lamp, polystylene filter, 3 cm, 2 hrs

| stability after deprotection of the amino protecting group [1] | stability when dissolved in methanol or CHCl3 under irradiation of sunlight [1] | SMILES | concentration required to convert supercoiled DNA to the nicked type DNA (supercoiled φX-174 DNA; [2]) [µM] | DNA cleavage activity (φX174 RFI DNA) | also measured |
| --- | --- | --- | --- | --- | --- |
| – | – | O=C(OCC1C(COC(=O)c2c3ccccc3cc3ccccc23)C1(F)F)c1c2ccccc2cc2ccccc12 (stereo not drawn) [9-anthracene carboxylic diester of 1,3-bishydroxymethyl-2,2-difluoro-cyclopropane] | – | – | DNA cleavage activity (DNA): no significant DNA cleavage activity |
| – | – | O=C(NC[C@H]1[C@H](CO)C1(F)F)c1c2ccccc2cc2ccccc12 [(R,R)-11, (R,R)-2,2-difluoro-3-hydroxymethyl-cyclopropylmethyl anthracene-9-carboxamide] | – | – | equivalent versus the DNA base pair at that concentration (supercoiled φX174 DNA; 20 mM sodium phosphate pH 7.0, 20% DMSO): 1.3 equivalent; concentration at which supercoiled DNA was converted to the nicked form (supercoiled φX174 DNA; 20 mM sodium phosphate pH 7.0, 20% DMSO, 6 cm): 100 µM; DNA cleavage activity (qualitative) (supercoiled φX174 DNA; FIG. 5): strong DNA cleavage activity |
| unstable | unstable | NC[C@H]1[C@H](COC(=O)c2c3ccccc3cc3ccccc23)C1(F)F [(R,R)—NH2-mono, (R,R)-3-aminomethyl-2,2-difluoro-cyclopropylmethyl anthracene-9-carboxylate] | 85.5 | – | DNA cleavage strength relative to the (S,S)-isomer (supercoiled φX-174 DNA; Xe lamp, 2 hrs): more than 10 times; equivalent versus supercoiled φX-174 DNA at the required concentration (supercoiled φX-174 DNA; [2]): 0.667 equivalent; activity relative to the corresponding (S,S)-isomer (description) (supercoiled φX-174 DNA; stated in detailed description): five times stronger activity |
| unstable | unstable | NC[C@@H]1[C@@H](COC(=O)c2c3ccccc3cc3ccccc23)C1(F)F [(S,S)—NH2-mono, (S,S)-3-aminomethyl-2,2-difluoro-cyclopropylmethyl anthracene-9-carboxylate] | 1200 | weak DNA cleavage agent | – |
| – | – | CCOC(=O)c1c2ccccc2cc2ccccc12 [anth-OEt, Ethyl 9-anthracene carboxylate, reference compound] | – | no significant activity | – |
